Values quoted from earlier work, collected in paper PMC9321963 (Birth Defects Research, 2022).

Columns and labels:
pregnant rats = details: ref Mey, Babiuk, Clugston, Zhang, & Greer, [2003]; cited from earlier work
rats = details: ref Food and Drug Administration, Duvelisib Label, [2018]; cited from earlier work
rabbits = details: ref Food and Drug Administration, Duvelisib Label, [2018]; cited from earlier work

Row | Compound | anomalies in offspring after administration to pregnant rats (pregnant rats) | developmental toxicity (rats) | developmental toxicity (rabbits)
1 | O=[N+]([O-])c1ccc(Oc2ccc(Cl)cc2Cl)cc1 [nitrofen, 2,4‐dichlorophenyl‐p‐nitrophenyl ether] | congenital anomalies in the offspring, including CDH defects |  | 
2 | O=C(NCCCCCCCCNC(=O)C(Cl)Cl)C(Cl)Cl [bisdiamine, N,N‐octamethylenebis (dichloroacetamide)] | congenital anomalies in the offspring, including CDH defects |  | 
3 | O=C(O)c1ccc(-c2ccccc2)cc1 [4‐biphenyl carboxylic acid] | congenital anomalies in the offspring, including CDH defects |  | 
4 | C[C@H](Nc1ncnc2[nH]cnc12)c1cc2cccc(Cl)c2c(=O)n1-c1ccccc1 [Duvelisib] |  | developmental toxicant causing fetal losses and malformations | developmental toxicant causing fetal losses and malformations
